# In patent publication US12187679B2, “Hydroxylated psilocybin derivatives and methods of using” (Enveric Biosciences Canada Inc., priority 2020, dated 2025):
# What was measured:
# [1] = target: 5-HT2A receptor (Homo sapiens, UniProt P28223); assay: Fluo-8 calcium release assay, serotonin with and without compound (positive allosteric modulation), +5-HT2A cells; type: cell-based; conditions: serotonin 3 uM with compound 3 uM, FIG. 8C
# Description: (§1) Cell lines for pharmacology assays. CHO-K1/Galpha15 (GenScript, M00257) (−5-HT2A) and CHO-K1/5-HT2A (GenScript, M00250) (+5-HT2A) cells lines were used in both toxicology/growth inhibition (MTT) and calcium release assays. Briefly, CHO-K1/Galpha15 is a control cell line that constitutively expresses Galpha15 which is a promiscuous Gq protein. It is engineered as a host cell, allowing transfected receptor(s) to signal through the Gq signal transduction pathway and mobilize intracellular calcium from the endoplasmic reticulum (ER). These control cells lack any transgene encoding 5-HT2A receptors, thus preventing calcium mobilization in response to 5-HT2A activation. Conversely, CHO-K1/5-HT2A cells stably express 5-HT2A receptor in the CHO-K1 host background. […]
# (§2) Increase in cytosolic calcium concentration by 5-HT2A activation and assessment of modulation. Changes in intracellular calcium concentration due to the treatment with assay compounds was measured using Fluo-8 dye (Abcam, #ab112129) according to the manufacturer's instructions. […] Fluorescence (ex 490 nm/em 525 nm) obtained after the addition of molecules was expressed relative to values obtained before addition of the molecules (relative Fluo-8 fluorescence=Fmax/F0, where Fmax=maximum fluorescence and F0=baseline fluorescence). Fluorescence intensities were measured using a Spectramax ID3 plate reader (www.moleculardevices.com). […]
# [2] = tested on: CHO-K1/Galpha15 cells lacking 5-HT2A; assay: Fluo-8 calcium release control assay in -5-HT2A cells; type: cell-based, Chinese Hamster; conditions: FIG. 8D panel A
# Description: as §1, §2
# 5-HT2A receptor, sequence (P28223 whole entry): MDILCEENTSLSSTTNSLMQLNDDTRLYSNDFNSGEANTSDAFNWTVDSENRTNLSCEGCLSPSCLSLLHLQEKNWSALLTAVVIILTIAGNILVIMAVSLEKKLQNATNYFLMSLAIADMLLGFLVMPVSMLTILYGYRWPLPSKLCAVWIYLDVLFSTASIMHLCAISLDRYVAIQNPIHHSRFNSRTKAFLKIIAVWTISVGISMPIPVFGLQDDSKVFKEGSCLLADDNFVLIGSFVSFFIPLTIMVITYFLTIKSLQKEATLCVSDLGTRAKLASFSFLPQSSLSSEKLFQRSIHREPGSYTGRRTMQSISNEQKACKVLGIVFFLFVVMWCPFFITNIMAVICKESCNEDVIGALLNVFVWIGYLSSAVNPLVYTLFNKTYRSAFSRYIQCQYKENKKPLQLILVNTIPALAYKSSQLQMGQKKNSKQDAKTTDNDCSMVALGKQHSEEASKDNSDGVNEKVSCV
SMILES,"time-dependent calcium flux (relative fluorescence, RFU) in response to serotonin with compound vs serotonin alone [1]",calcium response (relative Fluo-8 fluorescence) [2]
"CC(=O)NCCc1c[nH]c2c(C)ccc(O)c12 [compound (IV), N-[2-(4-hydroxy-7-methyl-1H-indol-3-yl)ethyl]acetamide]",elevated flux,–
"NCCc1c[nH]c2ccc(O)cc12 [serotonin, 5-hydroxytryptamine]",–,did not exhibit a response
